According to patent US12390459B2, “Methods for solid tumor treatment” (CRITITECH, INC., priority 2016, dated 2025):
Where two headings read alike, the source gives them in different places.

Key:
[1] = Docetaxel dissolution study, USP Apparatus II (Paddle); assay type: physicochemical; conditions: for Docetaxel Dissolution: methanol/water 15/85, 37° C., pH 7
Experimental: At 5, 15, 30, 60, 120 and 225 minutes, a 5 mL aliquot was removed, filtered through a 0.22 μm filter, and analyzed on a UV/VIS spectrophotometer at 232 nm. Absorbance values of the samples were compared to those of standard solutions prepared in dissolution media to determine the amount of material dissolved.

[2] = Particle size analysis (light obscuration and laser diffraction); assay type: physicochemical
Experimental: Particle size was analyzed by both light obscuration and laser diffraction methods. An Particle Sizing Systems AccuSizer 780 SIS system was used for the light obscuration method and Shimadzu SALD-7101 was used for the laser diffraction method.
The vials were vortexed for approximately 10 seconds and then sonicated in a sonic bath approximately 1 minute.
The vial was vortexed for approximately 10 seconds and then sonicated in a sonic bath for approximately 2 minutes. This suspension was used for laser diffraction analysis. Unused suspension was poured into a 125 mL particle-free plastic bottle, which was then filled to approximately 100 mL with filtered dispersant. The suspension was vortex for approximately 10 seconds and then sonicated in the sonic bath for approximately 2 minutes. This diluted suspension was used for light obscuration analysis.
A background test was first performed prior to analyzing particles on the AccuSizer 780 SIS. A new particle-free plastic bottle was filled with blank suspension solution by pumping from a reservoir, using a peristaltic pump, through a 0.22 μm Millipore filter and into the bottle. A background analysis was run to ensure the particle/mL count was below 100 particles/mL. […] Once the analysis was completed, the background data was removed and any measurement with less than four counts was removed.
To analyze particles on SALD-7101 using a batch cell, the analysis was started by choosing Manual Measurement. The refractive index was set as 1.5 to 1.7. The batch cell was filled with filtered dispersant just past the etched line. The blank measurement was ran. […] The measurements were executed, and the resulting graph with the highest level of confidence was selected; background was automatically accounted for.

[3] = BET surface area analysis; assay type: physicochemical
Experimental: As used herein, the “specific surface area” is the total surface area of the taxane particle per unit of taxane mass as measured by the Brunauer-Emmett-Teller (“BET”) isotherm (i.e.: the BET SSA). As will be understood by those of skill in the art, the “taxane particles” can include both agglomerated taxane particles and non-agglomerated taxane particles; since the SSA is determined on a per gram basis it takes into account both agglomerated and non-agglomerated taxane particles in the composition. The BET specific surface area test procedure is a compendial method included in both the United States Pharmaceopeia and the European Pharmaceopeia.
A known mass between 200 and 300 mg of the analyte was added to a 30 mL sample tube. […] The automated test was then carried out using the BETWIN® software package and the surface area of each sample was subsequently calculated.

[4] = Paclitaxel dissolution study, USP Apparatus II (Paddle); assay type: physicochemical; conditions: methanol/water 50/50 (v/v), 37° C., pH 7, 75 rpm
Experimental: Beads were transferred to a stainless steel mesh container and placed in the dissolution bath containing methanol/water 50/50 (v/v) media at 37° C., pH 7, and a USP Apparatus II (Paddle), operating at 75 rpm. At 10, 20, 30, 60, and 90 minutes, a 5 mL aliquot was removed, filtered through a 0.22 μm filter and analyzed on a U(V/V)is spectrophotometer at 227 nm. Absorbance values of the samples were compared to those of standard solutions prepared in dissolution media to determine the amount of material dissolved.

[5] = system: MX-1 human breast cancer xenografts; conditions: for animal deaths / animals euthanized: 30 mg/kg IV qwk×3, 10 mice; for inhibition of growth of the xenografts: 30 mg/kg IV qwk×3 vs vehicle
Description: Tumor model: A total of 88 female NCr-nu/nu mice were implanted with MX-1 breast tumor fragments from an in vivo passage subcutaneously (SC) on the right flank. The day of tumor cell implantation was designated as Day 0.
The NanoPac™ and NanoDoce™ are suspensions. Prior to filling each syringe and between the injections of each animal, the test article was gently swirled/inverted. Animals were observed once daily for mortality and moribundity. Adverse signs were documented by exception only. Body weights were collected twice weekly beginning on SD. Tumor measurements were taken twice weekly beginning on SD, using a digital caliper. Length and width were measured for each tumor. Tumor volume was determined using the formula for an ellipsoid sphere: Length×Width 2/2=Volume (mm^3). This formula was also used to calculate tumor weight, assuming unity density (1 mm^3=1 mg). Limit of tumor detection is 32 mg (4×4 mm). The experiment lasted for 63 days from the day of tumor implant. Animals whose weight decreased more than 30% from the weight on the first day of treatment or whose tumor reached 4,000 mg in weight, ulcerated, or sloughed off was euthanized prior to study termination.

[6] = system: MDA-MB-231 human breast cancer xenografts; conditions: for complete tumor regressions (animals): 30 mg/kg IV qwk×3; for animal deaths: 30 mg/kg IV qwk×3, 10 mice; for mean tumor weight: 30 mg/kg IV qwk×3, Day 29; for inhibition of growth of the xenografts: 30 mg/kg IV qwk×3, Day 29 vs vehicle; for % difference at nadir of response: 30 mg/kg IV qwk×3, Day 33; for tumor-free animals at the end of the study: 30 mg/kg IV qwk×3, Day 61; for tumor-free animals: IV treated group, Day 49
Description: Study Design: A total of 88 female NCr-nu/nu mice were implanted with MDA-MB-231 breast tumor fragments from an in vivo passage subcutaneously (SC) on the right flank. The day of tumor cell implantation (Aug. 4, 2016) was designated as Day 0.
The NanoPac™ and NanoDoce™ are suspensions. Prior to filling each syringe and between the injections of each animal, the test article was gently swirled/inverted. Intratumoral administration of the test material entailed the use of six needle tracks per tumor (27 G ½ inch needle). One sixth of the dose volume was injected as a slow bolus in each track, with ˜15 seconds pause before removing the needle slowly, and moving to the next injection site spaced over the surface of the tumor. The animals were observed once daily for mortality and moribundity. The mice were weighed and the tumor measurements were taken twice weekly starting on the first day of treatment. Length and width were measured for each tumor. Tumor volume was determined using the formula for an ellipsoid sphere: Length×Width^2/2=Volume(mm^3)
This formula was also used to calculate tumor weight, assuming unity density (1 mm^3=1 mg). Limit of tumor detection was 32 mg (4×4 mm). The experiment lasted for 61 days from the day of tumor implant. Animals whose weight decreased more than 30% from the weight on the first day of treatment or whose tumor reached 4,000 mg in weight, ulcerated, or sloughed off was euthanized prior to study termination.

[7] = system: JIMT-1 human breast cancer xenografts; test: JIMT-1 human breast cancer xenograft study; assay type: in vivo, CB.17 SCID mice; conditions: 30 mg/kg iv qwk×3
Experimental: Test articles were as follows:
Adjust volume accordingly for body weight. […] Animals were monitored individually. […] When the endpoint is reached, the animals were euthanized.
Tumor growth inhibition was evaluated on D29 (the last day of dosing for animals receiving 5 admins, G1, 3, 4) at 1000 mm^3 and the study ended on D50 with a revised tumor volume endpoint of 600 mm^3 for overall survival analysis.

[8] = Paclitaxel concentration in JIMT-1 tumor tissue (LC/MS/MS); assay type: in vivo, CB.17 SCID mice; conditions: Group 5: 30 mg/kg, IV, qwk × 3; day 50, 35 days after last dose; individual animals
Experimental: The timing of the analysis for each group relative to the last day of drug administration is as follows: • 21 days after last dose for groups 1, 3 and 4; • 49 days for group 2; and • 35 days for group 5.
Tissue processing was carried out as follows: • 1. Control tumor tissue and tumor tissue samples were weighed and three volumes of water were added to each to yield samples with a dilution factor of 4. • 2. Tumor tissues were homogenized with a homogenizer FastPrep®-24 using a speed of 4.0 m/sec for 100 sec. • 3. 50 μL of control tumor tissue homogenate was added to separate wells of a 96 well plate for STDs, QC samples and blanks. • 4. To the control tumor tissue homogenates, 50 μL of the appropriate solution was added for STDs and QC samples (50 μL of diluent was added for blanks) • 5. For tumor tissue homogenate study samples, 50 μL of each sample was added to separate well of the 96-well plate and 50 μL aliquot of diluent was added to each tissue sample. • 6. To all samples, 200 μL of internal standard (200 ng/mL Warfarin) solution in ACN was added. • 7. The plate was vortexed vigorously for 10 minutes and then centrifuged for 10 minutes at 4000 rpm (Sorvall Legend X1R centrifuge, Thermo Scientific) at 15° C. • 8. After centrifugation, 100 μL aliquots of supernatant were transferred to a new 96-well plate containing 100 μL of water in each well. • 9. […]

[9] = system: PC-3 human prostate carcinoma; test: PC-3 prostate carcinoma xenograft, Study P-PPr-01-2015; assay type: in vivo, nude mouse; conditions: IV 30 mg/kg qwk×3
Experimental: Tumors were measured twice per week. Partial treatment outcome was based on percent tumor growth inhibition (% TGI), defined as the percent difference between the Day 32 median tumor volumes of treated and vehicle-control mice.

CC(=O)O[C@@]12CO[C@@H]1C[C@H](O)[C@@]1(C)C(=O)[C@H](O)C3=C(C)[C@@H](OC(=O)[C@H](O)[C@@H](NC(=O)OC(C)(C)C)c4ccccc4)C[C@@](O)([C@@H](OC(=O)c4ccccc4)[C@H]21)C3(C)C [Docetaxel Raw Material, docetaxel]
Docetaxel Dissolution ([1]; 0 minutes): 0.0% | Docetaxel Dissolution ([1]; 5 minutes): 3.2% | Docetaxel Dissolution ([1]; 15 minutes): 6.9% | Docetaxel Dissolution ([1]; 30 minutes): 11.2% | Docetaxel Dissolution ([1]; 60 minutes): 16.4% | Docetaxel Dissolution ([1]; 120 minutes): 22.4% | Docetaxel Dissolution ([1]; 225 minutes): 26.8% | Dissolution (30 min) ([1]; methanol/water 15/85 (v/v), 37° C., pH 7, 75 rpm): 11% | Number Mean [2]: 1.58 um | Volume Mean [2]: 5.05 um

CC(=O)O[C@H]1C(=O)[C@@]2(C)[C@H]([C@H](OC(=O)c3ccccc3)[C@]3(O)C[C@H](OC(=O)[C@H](O)[C@@H](NC(=O)c4ccccc4)c4ccccc4)C(C)=C1C3(C)C)[C@]1(OC(C)=O)CO[C@@H]1C[C@@H]2O [Paclitaxel Raw Material, paclitaxel]
Surface Area ([3]; BET): 10.4 m^2/g | BET surface area ([3]; Example 1): 7.25 m^2/g | Dissolution (30 min) [4]: 18% | Number Mean [2]: 1.16 um

CC(=O)O[C@@]12CO[C@@H]1C[C@H](O)[C@@]1(C)C(=O)[C@H](O)C3=C(C)[C@@H](OC(=O)[C@H](O)[C@@H](NC(=O)OC(C)(C)C)c4ccccc4)C[C@@](O)([C@@H](OC(=O)c4ccccc4)[C@H]21)C3(C)C [docetaxel]
animal deaths / animals euthanized [5]: two animals euthanized for body weight loss >30% | mean tumor weight ([5]; 30 mg/kg IV qwk×3, Day 28): 0.9 mg | animals with completely regressed tumors ([5]; 30 mg/kg IV qwk×3, Day 31): nine | surviving animals tumor-free at the end of the study ([5]; 30 mg/kg IV qwk×3, Day 63): eight | inhibition of growth of the xenografts [5]: significantly inhibited the growth | complete tumor regressions (animals) [6]: 10 | animal deaths [6]: no animal deaths | mean tumor weight [6]: 16 mg | inhibition of growth of the xenografts [6]: significantly inhibited the growth | % difference at nadir of response [6]: −99.8% | mean tumor volume ([6]; 30 mg/kg IV qwk×3, Day 40): 0 | tumor-free animals at the end of the study [6]: 10 | tumor-free animals [6]: ten

CC(=O)O[C@H]1C(=O)[C@@]2(C)[C@H]([C@H](OC(=O)c3ccccc3)[C@]3(O)C[C@H](OC(=O)[C@H](O)[C@@H](NC(=O)c4ccccc4)c4ccccc4)C(C)=C1C3(C)C)[C@]1(OC(C)=O)CO[C@@H]1C[C@@H]2O [paclitaxel]
animal deaths / animals euthanized [5]: without animal deaths | mean tumor weight ([5]; 30 mg/kg IV qwk×3, Day 24): 309 mg | % difference at nadir of response ([5]; 30 mg/kg IV qwk×3, Day 31): −86.0% | inhibition of growth of the xenografts [5]: significantly inhibited the growth | TGI [7]: significant TGI | survival extension [7]: significantly improved survival extension | complete tumor regressions (animals) [6]: six | animal deaths [6]: without animal deaths | mean tumor weight [6]: 118 mg | inhibition of growth of the xenografts [6]: significantly inhibited the growth | % difference at nadir of response [6]: −97.4% | tumor-free animals at the end of the study [6]: three | tumor-free animals [6]: three | Paclitaxel Concentration in tumor tissue [8]: BQL < 1 ng/g | TGI [9]: significant TGI | survival extension [9]: significantly improved survival extension
